# Patent US9796716B2, “Selective inhibitors of Tec and Src protein kinase families” (Pharmascience, Inc., priority 2012, dated 2017)
# Where two headings read alike, the source gives them in different places.
# How the values were obtained:
# [1] = biological target: recombinant human full-length Bruton Agammaglobulinemia Tyrosine Kinase (Btk) (Homo sapiens (Human), UniProt Q06187); assay: Btk Kinase Inhibition Assay (fluorescence polarization); format: biochemical; conditions: 10 μM ATP, 250 μM substrate, 60 minutes; Ki calculated from IC50 using the Cheng-Prusoff equation
# Experimental: Kinase Binding Btk Kinase Inhibition Assay
# Fluorescence polarization-based kinase assays were performed in 384 well-plate format using histidine tagged recombinant human full-length Bruton Agammaglobulinemia Tyrosine Kinase (Btk) and a modified protocol of the KinEASE™ FP Fluorescein Green Assay supplied from Millipore. Kinase reaction were performed at room temperature for 60 minutes in presence of 250 μM substrate, 10 μM ATP and variable test article concentrations. The reaction was stopped with EDTA/kinase detection reagents and the polarization measured on a Tecan 500 instrument. From the dose-response curve obtained, the IC50 was calculated using Graph Pad Prisms® using a non linear fit curve. The Km for ATP on each enzyme was experimentally determined and the Ki values calculated using the Cheng-Prusoff equation (see: Cheng Y, Prusoff W H. (1973) Relationship between the inhibition constant (K1) and the concentration of inhibitor which causes 50 percent inhibition (I50) of an enzymatic reaction”. Biochem Pharmacol 22 (23): 3099-108).
# Balb/c mice = assay: Mouse Arthus; format: in vivo; conditions: oral gavage at 30 mg/kg, 1 h pre-treatment
# Experimental: Mouse Arthus studies were conducted as reported in Braselmann S, Taylor V, Zhao H, Wang S, Sylvain C, Baluom M, Qu K, Herlaar E, Lau A, Young C, Wong B R, Lovell S, Sun T, Park G, Argade A, Jurcevic S, Pine P, Singh R, Grossbard E B, Payan D G, Masuda E S: R406 an orally available spleen tyrosine kinase inhibitor blocks fc receptor signaling and reduces immune-complex mediated inflammation. J Pharmacol Exp Ther, 2006, 319:998-1008.
# In summary, female Balb/c mice (6-7 weeks on arrival) were habituated to the animal facility for at least 4 days. On the day of the experiment, animals were pre-treated (t=minus 1 h) with compound or vehicle alone by gavage (PO). At t=0, animals were injected intravenously (IV; 0.1 mL/mouse) with saline containing chicken ovalbumin and Evan's blue (10 mg/mL of each). Ten minutes later (t=10 min), animals were anesthesized with isoflurane, the dorsal surface was shaved and rabbit anti-chicken ovalbumin antibody was then injected intradermally at one site on the right side of the animal (25 μg in 30 μL). The same amount of isotype control antibody was then injected on the left side.
# The animals were then returned to their home cage and skin punches (8 mm) were collected from each injection site four hours later. The samples were placed in 1 mL formamide overnight at 80 degrees C. (1 skin biopsy per 1 mL formamide in a glass tube). The amount of Evan's blue in the formamide solution was then assessed by spectrophotometry (630 nm) as a measure of serum extravasation into the dermis.
# [2] = tested on: Splenocytes (B cell proliferation stimulated with anti-IgM F(ab′)2); assay: Splenic Cell Proliferation Assay; format: cell-based; conditions: CD1 mouse splenocytes, 2.5 ug/ml anti-IgM F(ab′)2 for 72 h, Cell Titer-Glo, read-out: EC50 (nM), Inhibition of splenic cell proliferation
# Experimental: Splenic Cell Proliferation Assay
# Splenocytes were obtained from 6 week old male CD1 mice (Charles River Laboratories Inc.). Mouse spleens were manually disrupted in PBS and filtered using a 70 um cell strainer followed by ammonium chloride red blood cell lysis. Cells were washed, resuspended in Splenocyte Medium (HyClone RPMI supplemented with 10% heat-inactivated FBS, 0.5× non-essential amino acids, 10 mM HEPES, 50 uM beta mercaptoethanol) and incubated at 37° C., 5% CO2 for 2 h to remove adherent cells. Suspension cells were seeded in 96 well plates at 50,000 cells per well and incubated at 37° C., 5% CO2 for 1 h. Splenocytes were pre-treated in triplicate with 10,000 nM curves of Formula 1 compounds for 1 h, followed by stimulation of B cell proliferation with 2.5 ug/ml anti-IgM F(ab′)2 (Jackson ImmunoResearch) for 72 h. Cell proliferation was measured by Cell Titer-Glo Luminescent Assay (Promega). EC50 values (50% proliferation in the presence of compound as compared to vehicle treated controls) were calculated from dose response compound curves using GraphPad Prism Software.
# B10R111 mice = assay: Mouse CIA model; format: in vivo; conditions: oral gavage at 30 mg/kg (BID)
# Experimental: Mouse CIA model was performed using the methods described by Trentham D E, Townes A S, Kang A H. Autoimmunity to Type II Collagen: An Experimental Model of Arthritis. J Exp Med 1977; 857-868, and Bendele A M. Animal Models of Rheumatoid Arthritis. J Musculoskel Interact 2001; 377-385.
# In summary, male B10R111 mice (7-9 wks on arrival) were habituated to the animal facility for at least 4 days. On experimental day 0 mice were anaesthetized with isoflurane and the dorsal surface was shaved. Collagen, emulsified in Freund's complete adjuvant (CFA) supplemented with additional mycobacterium tuberculosis (TB) H37Ra, was injected intradermally at the base of the tail (0.15 mL/animal; 2 mg/mL collagen and 2.5 mg/mL TB in CFA). This CFA treatment was repeated on day 15.
# From day 15 to the end of the study animals were scored daily for signs of arthritis. On the first day of disease (RA Day 1) animals were recruited to the study and grouped using a balanced design based on arthritis score. Once recruited, animals were weighed and dosed twice daily by gavage (PO, BID). Recruited animals were then scored twice a week on RA days 1, 5, 8 and 12. At the end of the study (RA day 12) animals were weighed and scored.
# Sequence of recombinant human full-length Bruton Agammaglobulinemia Tyrosine Kinase (Btk) (Q06187 whole entry): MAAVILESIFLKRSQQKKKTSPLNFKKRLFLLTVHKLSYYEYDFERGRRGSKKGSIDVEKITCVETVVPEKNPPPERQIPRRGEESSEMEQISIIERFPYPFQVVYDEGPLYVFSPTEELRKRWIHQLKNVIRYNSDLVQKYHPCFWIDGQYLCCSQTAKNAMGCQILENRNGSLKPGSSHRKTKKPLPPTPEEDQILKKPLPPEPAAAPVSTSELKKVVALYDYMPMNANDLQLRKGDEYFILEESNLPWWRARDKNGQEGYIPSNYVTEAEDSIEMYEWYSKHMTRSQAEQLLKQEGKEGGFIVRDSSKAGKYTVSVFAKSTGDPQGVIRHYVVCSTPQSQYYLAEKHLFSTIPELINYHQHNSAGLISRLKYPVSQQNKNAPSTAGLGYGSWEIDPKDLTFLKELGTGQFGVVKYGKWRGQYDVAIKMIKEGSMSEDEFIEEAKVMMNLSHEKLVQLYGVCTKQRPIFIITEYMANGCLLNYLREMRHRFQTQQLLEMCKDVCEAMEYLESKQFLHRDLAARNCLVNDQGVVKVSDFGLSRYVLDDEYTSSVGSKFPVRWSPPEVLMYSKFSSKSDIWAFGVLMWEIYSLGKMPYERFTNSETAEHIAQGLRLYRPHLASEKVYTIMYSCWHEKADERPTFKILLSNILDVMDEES
Structure (SMILES),Ki [1],efficacy in mouse Arthus (Evan's blue extravasation) (Balb/c mice),"EC50 ([2]; Mus musculus, Splenocyte, 72 h)",efficacy in mouse CIA model (arthritis score) (B10R111 mice),EC50 [2]
Nc1ncnc2c1c(-c1ccc(Oc3cccc(OCc4cncs4)c3)cc1)nn2C1CCCC1 [Compound 14],< 100 nM,demonstrated efficacy,< 100 nM,demonstrated efficacy,
N#Cc1ccccc1COc1cccc(Oc2ccc(-c3nn(C4CCCC4)c4ncnc(N)c34)cc2)c1 [Compound 15],< 100 nM,demonstrated efficacy,,,< 100 nM
Nc1ncnc2c1c(-c1ccc(Oc3cccc(OCc4cncs4)c3)cc1)nn2C1CCOCC1 [Compound 24],< 100 nM,demonstrated efficacy,< 100 nM,,
Nc1ncnc2c1c(-c1ccc(Oc3cc(F)cc(OCc4cncs4)c3)cc1)nn2C1CCOCC1 [Compound 46],< 100 nM,demonstrated efficacy,< 100 nM,,
Nc1ncnc2c1c(-c1ccc(Oc3cc(F)cc(OCc4cncs4)c3)cc1)nn2C1CCCC1 [Compound 50],< 100 nM,demonstrated efficacy,< 100 nM,,
Cc1ncc(COc2cc(F)cc(Oc3ccc(-c4nn(C5CCOCC5)c5ncnc(N)c45)cc3)c2)s1 [Compound 54],< 100 nM,demonstrated efficacy,< 100 nM,,
Cc1ncc(COc2cc(F)cc(Oc3ccc(-c4nn(C5CCCC5)c5ncnc(N)c45)cc3)c2)s1 [Compound 58],< 100 nM,demonstrated efficacy,< 100 nM,demonstrated efficacy,
Cc1ncc(COc2cc(F)cc(Oc3ccc(-c4nn(C5CCOCC5)c5ncnc(N)c45)cc3F)c2)s1 [Compound 59],< 100 nM,demonstrated efficacy,< 100 nM,,
Cc1ncc(COc2cccc(Oc3ccc(-c4nn(C5CCOCC5)c5ncnc(N)c45)cc3F)c2)s1 [Compound 62],< 100 nM,demonstrated efficacy,< 100 nM,,
Cn1cncc1COc1cc(F)cc(Oc2ccc(-c3nn(C4CCOCC4)c4ncnc(N)c34)cc2)c1 [Compound 71],< 100 nM,demonstrated efficacy,< 100 nM,,
Cc1ncc(COc2cc(F)cc(Oc3ccc(-c4nn(C(C)C)c5ncnc(N)c45)cc3)c2)s1 [Compound 78],< 100 nM,demonstrated efficacy,< 100 nM,demonstrated efficacy,
CC(C)n1nc(-c2ccc(Oc3cc(F)cc(OCc4cncn4C)c3)cc2)c2c(N)ncnc21 [Compound 79],< 100 nM,demonstrated efficacy,< 100 nM,,
Cn1cncc1COc1cc(F)cc(Oc2ccc(-c3nn(C4CCCC4)c4ncnc(N)c34)cc2)c1 [Compound 82],< 100 nM,demonstrated efficacy,< 100 nM,,
Cc1ccc(COc2cc(F)cc(Oc3ccc(-c4nn(C(C)C)c5ncnc(N)c45)cc3)c2)cn1 [Compound 85],< 100 nM,demonstrated efficacy,< 100 nM,demonstrated efficacy,
Cn1cncc1COc1cc(F)cc(Oc2ccc(-c3nn(CCO)c4ncnc(N)c34)cc2)c1 [Compound 90],< 100 nM,demonstrated efficacy,100 to 1000 nM,,
Cc1ncc(COc2cc(F)cc(Oc3ccc(-c4nn(C(CO)CO)c5ncnc(N)c45)cc3)c2)s1 [Compound 100],< 100 nM,demonstrated efficacy,< 100 nM,,
Cc1ncc(COc2cc(F)cc(Oc3ccc(-c4nn(C(C)C)c5ncnc(N)c45)cc3)c2)cn1 [Compound 102],< 100 nM,demonstrated efficacy,< 100 nM,demonstrated efficacy,
Cn1cncc1COc1cc(F)cc(Oc2ccc(-c3nn(C4CCCCC4)c4ncnc(N)c34)cc2)c1 [Compound 103],< 100 nM,demonstrated efficacy,< 100 nM,,
Cc1ncc(COc2cc(F)cc(Oc3ccc(-c4nn(C5CCOCC5)c5ncnc(N)c45)cc3)c2)cn1 [Compound 106],< 100 nM,demonstrated efficacy,< 100 nM,,
Cc1ncc(COc2cc(F)cc(Oc3ccc(-c4nn(C5CCCC5)c5ncnc(N)c45)cc3)c2)cn1 [Compound 107],< 100 nM,demonstrated efficacy,< 100 nM,,
Cc1ncc(COc2cc(F)cc(Oc3ccc(-c4nn(C5CCOCC5)c5ncnc(N)c45)cc3)c2)n1C [Compound 108],< 100 nM,demonstrated efficacy,< 100 nM,,
Cc1ncc(COc2cc(F)cc(Oc3ccc(-c4nn(CC(C)(C)O)c5ncnc(N)c45)cc3)c2)s1 [Compound 117],< 100 nM,demonstrated efficacy,< 100 nM,,
Cc1ncc(COc2cc(F)cc(Oc3ccc(-c4nn(CC5(C)COC5)c5ncnc(N)c45)cc3)c2)s1 [Compound 125],< 100 nM,demonstrated efficacy,< 100 nM,,
Cc1ncc(COc2cc(F)cc(Oc3ccc(-c4nn(C(C)(C)C)c5ncnc(N)c45)cc3)c2)cn1 [Compound 129],< 100 nM,,< 100 nM,,
Cc1ncc(COc2cc(F)cc(Oc3ccc(-c4nn(C(CO)CO)c5ncnc(N)c45)cc3)c2)cn1 [Compound 130],< 100 nM,,100 to 1000 nM,,
